Results from patent publication US5859207A (priority 1996, dated 1999).

Tests used:
[1] = test system: Human peripheral blood mononuclear cells (PBMC)
[2] = test system: Human peripheral blood mononuclear cells (PBMC); type: cell-based
human monocytes = type: binding

For staphylococcal enterotoxin A [SEA], the “concentration at which native SEA is effective (TNFα induction)” value [1] was 0.1 to 1 nM, the “cytotoxic activity neutralized by anti-TNFα antibody” value [1] was 63% and the IL-1 activity [2] was 875±5 units/ml. The “inhibition of biotinylated SEA(121-149) binding to monocytes” value (human monocytes) was “specifically inhibited”.
toxic shock syndrome toxin one [TSST-1] was tested, and the TNFα production [1] was 99 units/ml, the “TNFα production by monocytes depleted of T cells” value [1] was “approximately 25 units TNFα/ml” and the “cytotoxic activity neutralized by anti-TNFα antibody” value [1] was 76%. The “induction of TNFα production (in words)” value [1] was “induced significant TNFα production”.
